Test results as given in US5674864A, “N-substituted derivatives of α-mercapto alkylamines, their preparation process and the intermediates obtained, their use as medicaments and the compositions containing them” (Roussel Uclaf, priority 1990, dated 1997).

Assays:
enkephalinase = target: T1, enkephalinase (Rattus norvegicus, UniProt P07861); assay: Determination of the enkephalinase inhibiting effect; format: biochemical; conditions: renal membrane fraction of a rat; substrate Succinyl-Ala-Ala-Phe-amino-methylcoumarine; 37° C., 30 minutes, pH 7.5
T1 construct: from tissue; host or cells: rat kidney, renal membrane fraction solubilised with octyl beta-D-glucopyranoside (100,000 g supernatant)
T1 sequence (P07861 1-750): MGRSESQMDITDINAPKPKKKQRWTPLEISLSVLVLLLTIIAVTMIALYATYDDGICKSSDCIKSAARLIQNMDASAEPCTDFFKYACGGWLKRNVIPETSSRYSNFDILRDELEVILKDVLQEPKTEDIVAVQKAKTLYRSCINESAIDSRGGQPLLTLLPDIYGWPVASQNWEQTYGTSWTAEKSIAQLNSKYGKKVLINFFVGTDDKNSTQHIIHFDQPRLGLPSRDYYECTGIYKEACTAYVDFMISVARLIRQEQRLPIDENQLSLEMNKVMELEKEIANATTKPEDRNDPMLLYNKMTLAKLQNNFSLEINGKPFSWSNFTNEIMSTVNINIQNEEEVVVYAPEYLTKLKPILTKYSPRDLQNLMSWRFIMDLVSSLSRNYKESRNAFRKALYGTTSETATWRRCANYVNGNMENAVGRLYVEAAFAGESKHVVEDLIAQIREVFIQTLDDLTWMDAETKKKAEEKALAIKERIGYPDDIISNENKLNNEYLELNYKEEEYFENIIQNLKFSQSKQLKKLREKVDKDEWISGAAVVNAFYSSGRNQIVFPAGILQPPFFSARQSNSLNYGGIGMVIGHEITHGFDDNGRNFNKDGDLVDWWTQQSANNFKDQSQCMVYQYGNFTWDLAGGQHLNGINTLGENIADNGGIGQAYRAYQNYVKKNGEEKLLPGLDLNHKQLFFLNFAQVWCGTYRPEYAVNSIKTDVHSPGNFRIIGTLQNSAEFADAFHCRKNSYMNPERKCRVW
Protocol: 1) Determination of the enkephalinase inhibiting effect
The enkephalinase activity was determined from a renal membrane fraction of a rat. The kidneys were removed on ice and homogenized in a HEPES 0.05M pH 7.5 buffer containing magnesium chloride (50 times the volume). After a first centrifugation at 1,500 g, the specific fraction was obtained from a centrifugation at 15,000 g for 20 minutes. The deposit was then washed and suspended in a HEPES buffer and kept at -20° C. An aliquot of this membrane preparation was put in the presence of octyl beta-D-glucopyranoside (50 mM as final […]) for 15 minutes at 4° C. After centrifugation at 100,000 g for one hour, the supernatant was removed and frozen in aliqots at -20° C. The concentration of proteins was determined by the method using Comassie's blue.
An aliquot of the protein fraction thus prepared was preincubated at 25° C. for 10 minutes in a HEPES 0.05M pH 7.5 buffer or in the presence of the product to be studied. The substrate added was a non-natural enkephalin of formula Succinyl-Ala-Ala-Phe-amino-methylcoumarine (reference 1) (40mM as final concentration). The incubation continued at 37° C. for 30 minutes and then the reaction was stopped by heating to 95° C. for 5 minutes and each incubate was centrifuged. A solution of amino peptidase M (4 mM as final concentration) and thiorphan (reference 2) (10^-5 M) was added to the supernatant and the mixture was taken to 37° C. for one hour. The reaction was stopped as previously described and the fluorescence of 7-amino-methyl-coumarine produced was determined. The effect of the products to be tested was determined by calculating the IC50, the concentration which inhibited the hydrolysis of the substrate by 50%.
Reference 1: R. A. Munford, P. A. Pierzchala, A-W Strauss and M. Zimmerman, Purification of a membrane-bound metalloendo peptidase from porcine kidney that degrades peptides hormones. Proc. Natl. Acad. Sci 78, No. 11, p. 6623.
Reference 2: Inhibitor of enkephalinase described in Example 20 of French Patent No. 2,480,747.

[1] = Stretchings caused by acetic acid in a mouse (analgesic activity); format: in vivo; conditions: 0.25 h, PO, half-an-hour before intraperitoneal acetic acid, 15 minutes observation, read-out: DA50 (dose which allows a decrease of 50% in the number of stretchings)
Protocol: 2) Study of analgesic activity in a mouse Stretchings caused by acetic acid in a mouse
The test used was based on the fact indicated by KOSTER, et al [Fed. Proc. (1959), Vol. 1B, p. 412] according to which the intraperitoneal injection of acetic acid causes, in a mouse, repeated stretching and twisting movements which can persist for more than 6 hours. Analgesics prevent or lessen this syndrome which can be considered as the outward display of a widespread abdominal pain. A 1% solution of acetic acid in water was used and was administered at a volume of 10 ml/kg. The studied product was administered by buccal route half-an-hour before the acetic acid injection, the mice having gone without food for at least 6 hours. The stretchings were observed and counted for Each mouse for an observation period of 15 minutes. The results were expressed by means of the DA50, that is the dose which allows a decrease of 50% in the number of stretchings to be obtained relative to the control animals.

Hot-plate test = format: in vivo; conditions: Mus musculus, 0.5 h, po, male mice, plate at 56° C., 30 minutes after oral administration; for ED50: read-out: DA50 (dose which increased the reaction time by 50%); for ED100: read-out: DA100 (dose which increased the reaction time by 100%)
Protocol: Male mice weighing 22 g were placed individually on a copper plate maintained at 56° C. by a thermostatically-controlled water bath. […] The reaction time to the heat stimulus was noted and only animals reacting within 4.5 and 6.5 seconds were retained. The reaction time to the pain was measured 30 minutes after oral administration. The variations in the reaction time were expressed as a percentage of the initial time. The DA50 and DA100, or doses which increased the reaction time by 50 and 100%, taking into account variations in the control group, were determined by a graph or by the method of the least squares.

Row | IC50 (enkephalinase) [nM] | SMILES | ED50 [1] [mg/kg] | ED50 (Hot-plate test) [mg/kg] | ED100 (Hot-plate test) [mg/kg]
1 | 3.5 | CN(O)C(=O)NC(CS)Cc1ccccc1 (single isomer, unassigned; (+)) [Example 6, (+) N-hydroxy-N'-[2-mercapto-1-(phenylmethyl)-ethyl]-N-methyl urea] | – | – | –
2 | 70 | O=C(Nc1ccccc1)NC(CS)Cc1ccccc1 (single isomer, unassigned; (+)) [Example 16] | 50 | – | –
3 | 180 | CCCN(CCC)C(=O)NC(CS)Cc1ccccc1 (single isomer, unassigned; (+)) [Example 18, (+) N,N-dipropyl-N'-[2-mercapto-1-(phenylmethyl)-ethyl]urea] | 33 | 33 | 100
4 | 87 | CONC(=O)NC(CSC(C)=O)Cc1ccccc1 (stereo not drawn) [Example 1, S-[2-(3-methoxy-ureido)-3-phenyl-propyl]-ethanethioate] | 71 | – | –
5 | – | CC(=O)SCC(Cc1ccccc1)NC(=O)N(C)O (stereo not drawn) [Example 5] | – | 100 | 200
6 | – | COC(=O)CNC(=O)NC(CSC(C)=O)Cc1ccccc1 (stereo not drawn) [Example 11, Methyl N-[[[2-(acetylthio)-1-(phenylmethyl)-ethyl]-amino]-carbonyl]-glycinate] | 85 | 100 | –
7 | 100 | CC(=O)SCC(Cc1ccccc1)NC(=O)Nc1ccccc1 (stereo not drawn) [Example 15, S-[2-(3-phenyl-ureido)-3-phenylpropyl]ethanethioate] | – | – | –
8 | 48 | CCCN(CCC)C(=O)NC(CSC(C)=O)Cc1ccccc1 (stereo not drawn) [Example 17, S-[2-[3-bis(propyl)-ureido]-3-phenyl-propyl]-ethanethioate] | – | – | –
